Experimental data reported in patent US4894225A (priority 1987, dated 1990).

System: MX-1 tumors (human breast adenocarcinoma-derived tumor cell line)
Conditions: in vivo

O=P1(N(CCCl)CCCl)NCCCO1 (stereo not shown) [cytoxan]
% TGI (tumor growth inhibition vs PBS): 90.5%
deaths: 0/5
ΔBW (change in body weight): 1.11
ΔTW (change in tumor weight): 2.4
